From US20230406885A1, “CYCLIC PEPTIDES FOR TRAPPING INTERLEUKIN-1 BETA” (MERCK SHARP & DOHME LLC, priority 2022, published 2023)
*1 amine or outer side, *2 acyl side, *3 side chain or, on linkers, in order; H or OH if unused. Where a SMILES comes first, the peptide text is derived from it. [ ]: non-standard residue; d: D form. Trp(4-Cl)(βS-Me) = C[C@@H](c1c[nH]c2cccc(Cl)c12)[C@H](N)C(=O)O; Ala(piperidin-4-yl) = O=C([C@H](CC1CCN([*:3])CC1)N[*:1])[*:2]; Bip(4'-COOH) = N[C@@H](Cc1ccc(-c2ccc(C(=O)O)cc2)cc1)C(=O)O; Phe(4-COOH) = N[C@@H](Cc1ccc(C(=O)O)cc1)C(=O)O; Pro(4R-NH2) = N[C@H]1CN[C@H](C(=O)O)C1; 1Nal = N[C@@H](Cc1cccc2ccccc12)C(=O)O; hTyr = N[C@@H](CCc1ccc(O)cc1)C(=O)O; 3Pal = N[C@@H](Cc1cccnc1)C(=O)O; 4Pal = N[C@@H](Cc1ccncc1)C(=O)O; dDab = NCC[C@@H](N)C(=O)O; Orn = NCCC[C@H](N)C(=O)O; dNMeA = CN[C@H](C)C(=O)O; Dap = NC[C@H](N)C(=O)O; Aib = CC(C)(N)C(=O)O

The compounds below were run against T1, Recombinant human IL-1β (Homo sapiens, UniProt P01584) (assay: IL-6 assay in MRC5 cells: inhibition of IL-1β induced IL-6 secretion (AlphaLISA)). Settings: inhibition of IL-1β induced IL-6 secretion in MRC5 cells; IL-1β pre-incubated 1 hour with compound; read-out: MRC5 IC50.
T1 construct: purchased BioLegend 579404
T1 sequence (P01584 117-269): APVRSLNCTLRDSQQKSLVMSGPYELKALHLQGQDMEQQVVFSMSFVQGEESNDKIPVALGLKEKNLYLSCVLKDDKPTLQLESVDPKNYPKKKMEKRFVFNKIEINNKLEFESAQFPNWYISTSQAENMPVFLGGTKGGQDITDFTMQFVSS
Assay type: cell-based
In short: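 IL-1β at 2×EC80 in seeding medium (EMEM, 0.025% BSA) preincubated 1 h at ambient temperature with compound, then 3000 MRC5 cells/well added and incubated overnight at 37 °C, 5% CO2. IL-6 in conditioned medium quantified by AlphaLISA; IC50 from 4-parameter logistic fit.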

Structure (SMILES) | IC50 [nM]
CC(C)C[C@@H]1NC(=O)[C@H](Cc2cccc3ccccc23)NC(=O)[C@H](Cc2ccc(-c3ccc(C(=O)O)cc3)cc2)NC(=O)CNC(=O)[C@@H](C)N(C)C(=O)[C@H](CC(=O)O)NC(=O)[C@H]([C@@H](C)c2c[nH]c3cccc(Cl)c23)NC(=O)[C@@H]2C[C@@H](N)CN2C(=O)CNC(=O)[C@H](Cc2ccc(C(=O)O)cc2)NC(=O)[C@H](Cc2c[nH]c3ccccc23)NC(=O)[C@H](Cc2ccc(-c3ccc(C(=O)O)cc3)cc2)NC(=O)[C@H](CCc2ccc(O)cc2)NC(=O)C(C)(C)NC1=O [Example 36] (cyclo([Bip(4'-COOH)]W[Phe(4-COOH)]G[Pro(4R-NH2)][Trp(4-Cl)(βS-Me)]D[dNMeA]G[Bip(4'-COOH)][1Nal]L[Aib][hTyr])) | 0.0522
C[C@@H]1C(=O)NCC(=O)N[C@@H](Cc2ccc(-c3ccc(C(=O)O)cc3)cc2)C(=O)N[C@@H](Cc2cccc3ccccc23)C(=O)N[C@@H](CCCN)C(=O)NC(C)(C)C(=O)NCC(=O)N[C@@H](Cc2ccc(-c3ccc(C(=O)O)cc3)cc2)C(=O)N[C@@H](Cc2c[nH]c3ccccc23)C(=O)N[C@@H](Cc2ccc(C(=O)O)cc2)C(=O)NCC(=O)N2C[C@H](N)C[C@H]2C(=O)N[C@@H]([C@@H](C)c2c[nH]c3cccc(Cl)c23)C(=O)N[C@@H](CC(=O)O)C(=O)N1C [Example 37] (cyclo([Bip(4'-COOH)]W[Phe(4-COOH)]G[Pro(4R-NH2)][Trp(4-Cl)(βS-Me)]D[dNMeA]G[Bip(4'-COOH)][1Nal][Orn][Aib]G)) | 0.103
C[C@@H]1C(=O)NCC(=O)N[C@@H](Cc2ccc(-c3ccc(C(=O)O)cc3)cc2)C(=O)N[C@@H](Cc2cccnc2)C(=O)N[C@@H](CO)C(=O)N[C@H](C)C(=O)N[C@@H](CCc2ccc(O)cc2)C(=O)N[C@@H](Cc2ccc(-c3ccc(C(=O)O)cc3)cc2)C(=O)N[C@@H](Cc2c[nH]c3ccccc23)C(=O)N[C@@H](Cc2ccc(C(=O)O)cc2)C(=O)NCC(=O)N2C[C@H](N)C[C@H]2C(=O)N[C@@H]([C@@H](C)c2c[nH]c3cccc(Cl)c23)C(=O)N[C@@H](CC(=O)O)C(=O)N1C [Example 38] (cyclo([Bip(4'-COOH)]W[Phe(4-COOH)]G[Pro(4R-NH2)][Trp(4-Cl)(βS-Me)]D[dNMeA]G[Bip(4'-COOH)][3Pal]S[dA][hTyr])) | 0.217
C[C@@H]1C(=O)NCC(=O)N[C@@H](Cc2ccc(-c3ccc(C(=O)O)cc3)cc2)C(=O)N[C@@H](Cc2ccncc2)C(=O)N[C@@H](CO)C(=O)N[C@H](C)C(=O)N[C@@H](CCc2ccc(O)cc2)C(=O)N[C@@H](Cc2ccc(-c3ccc(C(=O)O)cc3)cc2)C(=O)N[C@@H](Cc2c[nH]c3ccccc23)C(=O)N[C@@H](Cc2ccc(C(=O)O)cc2)C(=O)NCC(=O)N2C[C@H](N)C[C@H]2C(=O)N[C@@H]([C@@H](C)c2c[nH]c3cccc(Cl)c23)C(=O)N[C@@H](CC(=O)O)C(=O)N1C [Example 39] (cyclo([Bip(4'-COOH)]W[Phe(4-COOH)]G[Pro(4R-NH2)][Trp(4-Cl)(βS-Me)]D[dNMeA]G[Bip(4'-COOH)][4Pal]S[dA][hTyr])) | 0.232
C[C@@H]1C(=O)NCC(=O)N[C@@H](Cc2ccc(-c3ccc(C(=O)O)cc3)cc2)C(=O)N[C@@H](CC2CCNCC2)C(=O)N[C@@H](CO)C(=O)N[C@H](C)C(=O)N[C@@H](CCc2ccc(O)cc2)C(=O)N[C@@H](Cc2ccc(-c3ccc(C(=O)O)cc3)cc2)C(=O)N[C@@H](Cc2c[nH]c3ccccc23)C(=O)N[C@@H](Cc2ccc(C(=O)O)cc2)C(=O)NCC(=O)N2C[C@H](N)C[C@H]2C(=O)N[C@@H]([C@@H](C)c2c[nH]c3cccc(Cl)c23)C(=O)N[C@@H](CC(=O)O)C(=O)N1C [Example 40] (cyclo([Bip(4'-COOH)]W[Phe(4-COOH)]G[Pro(4R-NH2)][Trp(4-Cl)(βS-Me)]D[dNMeA]G[Bip(4'-COOH)][Ala(piperidin-4-yl)]S[dA][hTyr])) | 0.508
C[C@@H]1C(=O)NCC(=O)N[C@@H](Cc2ccc(-c3ccc(C(=O)O)cc3)cc2)C(=O)N[C@@H](CN)C(=O)N[C@@H](CO)C(=O)N[C@H](C)C(=O)N[C@@H](CCc2ccc(O)cc2)C(=O)N[C@@H](Cc2ccc(-c3ccc(C(=O)O)cc3)cc2)C(=O)N[C@@H](Cc2c[nH]c3ccccc23)C(=O)N[C@@H](Cc2ccc(C(=O)O)cc2)C(=O)NCC(=O)N2C[C@H](N)C[C@H]2C(=O)N[C@@H]([C@@H](C)c2c[nH]c3cccc(Cl)c23)C(=O)N[C@@H](CC(=O)O)C(=O)N1C [Example 41] (cyclo([Bip(4'-COOH)]W[Phe(4-COOH)]G[Pro(4R-NH2)][Trp(4-Cl)(βS-Me)]D[dNMeA]G[Bip(4'-COOH)][Dap]S[dA][hTyr])) | 0.469
CC(C)C[C@@H]1NC(=O)[C@H](CCCCN)NC(=O)[C@H](Cc2ccc(-c3ccc(C(=O)O)cc3)cc2)NC(=O)CNC(=O)[C@@H](C)N(C)C(=O)[C@H](CC(=O)O)NC(=O)[C@H]([C@@H](C)c2c[nH]c3cccc(Cl)c23)NC(=O)[C@@H]2C[C@@H](N)CN2C(=O)CNC(=O)[C@H](Cc2ccc(C(=O)O)cc2)NC(=O)[C@H](Cc2c[nH]c3ccccc23)NC(=O)[C@H](Cc2ccc(-c3ccc(C(=O)O)cc3)cc2)NC(=O)[C@H](CCc2ccc(O)cc2)NC(=O)[C@@H](C)NC1=O [Example 42] (cyclo([Bip(4'-COOH)]W[Phe(4-COOH)]G[Pro(4R-NH2)][Trp(4-Cl)(βS-Me)]D[dNMeA]G[Bip(4'-COOH)]KL[dA][hTyr])) | 0.627
CC(C)C[C@@H]1NC(=O)[C@H](CCCCN)NC(=O)[C@H](Cc2ccc(-c3ccc(C(=O)O)cc3)cc2)NC(=O)CNC(=O)[C@@H](C)N(C)C(=O)[C@H](CC(=O)O)NC(=O)[C@H]([C@@H](C)c2c[nH]c3cccc(Cl)c23)NC(=O)[C@@H]2C[C@@H](N)CN2C(=O)CNC(=O)[C@H](Cc2ccc(C(=O)O)cc2)NC(=O)[C@H](Cc2c[nH]c3ccccc23)NC(=O)[C@H](Cc2ccc(-c3ccc(C(=O)O)cc3)cc2)NC(=O)[C@H](CCc2ccc(O)cc2)NC(=O)[C@@H](CCN)NC1=O [Example 43] (cyclo([Bip(4'-COOH)]W[Phe(4-COOH)]G[Pro(4R-NH2)][Trp(4-Cl)(βS-Me)]D[dNMeA]G[Bip(4'-COOH)]KL[dDab][hTyr])) | 0.244
CC(C)C[C@@H]1NC(=O)[C@H](CCCCN)NC(=O)[C@H](Cc2ccc(-c3ccc(C(=O)O)cc3)cc2)NC(=O)CNC(=O)[C@@H](C)N(C)C(=O)[C@H](CC(=O)O)NC(=O)[C@H]([C@@H](C)c2c[nH]c3cccc(Cl)c23)NC(=O)[C@@H]2C[C@@H](N)CN2C(=O)CNC(=O)[C@H](Cc2ccc(C(=O)O)cc2)NC(=O)[C@H](Cc2c[nH]c3ccccc23)NC(=O)[C@H](Cc2ccc(-c3ccc(C(=O)O)cc3)cc2)NC(=O)[C@H](CCc2ccc(O)cc2)NC(=O)[C@@H](CO)NC1=O [Example 44] (cyclo([Bip(4'-COOH)]W[Phe(4-COOH)]G[Pro(4R-NH2)][Trp(4-Cl)(βS-Me)]D[dNMeA]G[Bip(4'-COOH)]KL[dS][hTyr])) | 0.132
C[C@@H]1C(=O)NCC(=O)N[C@@H](Cc2ccc(-c3ccc(C(=O)O)cc3)cc2)C(=O)N[C@@H](CCCCN)C(=O)N[C@@H](CO)C(=O)N[C@H](C)C(=O)N[C@@H](CCc2ccc(O)cc2)C(=O)N[C@@H](Cc2ccc(-c3ccc(C(=O)O)cc3)cc2)C(=O)N[C@@H](Cc2c[nH]c3ccccc23)C(=O)N[C@@H](Cc2ccc(C(=O)O)cc2)C(=O)NCC(=O)N2C[C@H](N)C[C@H]2C(=O)N[C@@H]([C@@H](C)c2c[nH]c3cccc(Cl)c23)C(=O)N[C@@H](CC(=O)O)C(=O)N1C [Example 45] (cyclo([Bip(4'-COOH)]W[Phe(4-COOH)]G[Pro(4R-NH2)][Trp(4-Cl)(βS-Me)]D[dNMeA]G[Bip(4'-COOH)]KS[dA][hTyr])) | 0.174
